Source: patent US20130096105A1, “ArylSulfonamide Based Matrix Metalloprotease Inhibitors” (NOVARTIS AG, priority 2008, published 2013)
pIC50: −log10 of the molar value.

Assays:
Gelatinase (MMP-2) = target: T1, Gelatinase (MMP-2) (Homo sapiens, UniProt P08253); test: Gelatinase (MMP-2) inhibitory activity, fluorogenic peptide substrate cleavage; format: biochemical; settings: read-out: MMP02 IC50
T1 sequence (P08253 110-660): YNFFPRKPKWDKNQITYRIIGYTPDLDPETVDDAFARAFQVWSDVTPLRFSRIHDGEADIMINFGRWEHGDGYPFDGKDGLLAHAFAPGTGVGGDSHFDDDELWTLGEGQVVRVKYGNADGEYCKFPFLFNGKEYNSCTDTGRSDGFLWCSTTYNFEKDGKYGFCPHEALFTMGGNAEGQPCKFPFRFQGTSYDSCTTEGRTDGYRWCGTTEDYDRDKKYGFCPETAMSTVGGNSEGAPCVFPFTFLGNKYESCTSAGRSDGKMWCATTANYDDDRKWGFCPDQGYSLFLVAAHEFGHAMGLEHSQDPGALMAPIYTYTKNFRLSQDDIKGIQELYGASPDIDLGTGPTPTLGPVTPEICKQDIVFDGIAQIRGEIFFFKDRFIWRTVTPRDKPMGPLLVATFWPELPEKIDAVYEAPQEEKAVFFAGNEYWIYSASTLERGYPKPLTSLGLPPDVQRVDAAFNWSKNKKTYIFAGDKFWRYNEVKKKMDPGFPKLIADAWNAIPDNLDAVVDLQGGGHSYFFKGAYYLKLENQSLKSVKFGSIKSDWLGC
Procedure: (§1) Gelatinase (MMP-2) inhibitory activities can be determined as follows: Stock solutions of substrate (MCA-Lys-Pro-Leu-Gly-Leu-Dpa-Ala-Arg-NH2) are prepared in DMSO at a concentration of 1.4 mM. Stock solutions of inhibitors (0.03 μM-3 mM) are also prepared in DMSO. The inhibitors are diluted into the assay solutions, and the controls use an equal volume of DMSO so that the final DMSO concentration from the inhibitor and substrate dilutions in all assays is 1.0%. Assays are performed in an assay buffer (100 mM sodium chloride, 10 μM ZnCl. Sub 2, 10 mM CaCl2, 100 mM Tris-Cl pH7.5, 0.05% Brij-35), containing 1.0% DMSO from the substrate and inhibitor additions. The substrate concentration used in the assays is 5 μM. The assays are carried out at 20-25° C. The fluorescence changes, as a result of substrate cleavage, are monitored using an excitation wavelength of 325 nm and an emission wavelength of 405 nm. The reaction mixtures are added in duplicate into appropriate wells of a 384-well assay plate. The reaction mixtures are preincubated with the inhibitors for 60 minutes The reactions are started by the addition of MMP substrate, and the fluorescence intensity changes are measured after 60 minutes The apparent enzyme activity in the presence of an inhibitor is then compared with that in the absence of any inhibitor to determine the inhibition effect of the inhibitor. These techniques are within the knowledge of one skilled in the art. The inhibition results are expressed as the inhibitor concentrations required to effect 50% inhibition (IC50) of the enzyme activity, as compared with the control (non-inhibited) reactions.

Collagenase-3 (MMP-13) = Collagenase-3 (MMP-13) (Homo sapiens, UniProt P45452); test: Collagenase-3 (MMP-13) inhibitory activity, fluorogenic peptide substrate cleavage; format: biochemical; settings: read-out: MMP13 IC50
Procedure: as §1
Collagenase-3 (MMP-13) inhibitory activity is determined as described above. Recombinant pro-collagenase-3 is activated with 1 mM APMA, and stored in the assay buffer after extensive dialysis in the assay buffer.

pIC50 (Gelatinase (MMP-2))	pIC50 (Collagenase-3 (MMP-13))	Structure (SMILES)
5.16	6.08	NS(=O)(=O)c1cc(C(=O)c2ccc(C(=O)NCc3ccccc3)cc2)ccc1Cl [Example 35, N-Benzyl-4-(4-chloro-3-sulfamoyl-benzoyl)-benzamide]
4.83	5.07	NS(=O)(=O)c1cc(C(=O)c2ccc(C(=O)NCCc3ccccn3)cc2)ccc1Cl [Example 36, 4-(4-Chloro-3-sulfamoyl-benzoyl)-N-(2-pyridin-2-yl-ethyl)-benzamide]
4.64	5.05	NS(=O)(=O)c1cc(C(=O)c2ccc(C(=O)NCCCCc3ccccc3)cc2)ccc1Cl [Example 37, 4-(4-Chloro-3-sulfamoyl-benzoyl)-N-(4-phenyl-butyl)-benzamide]
< 4.52	5.15	NS(=O)(=O)c1cc(C(=O)c2ccc(-c3ccsc3)cc2)ccc1Cl [Example 40, 2-Chloro-5-(4-thiophen-3-yl-benzoyl)-benzenesulfonamide]
6.52	6.42	NS(=O)(=O)c1cc(C(=O)c2ccc(-c3ccnc(Cl)c3)cc2)ccc1Cl [Example 43, 2-Chloro-5-[4-(2-chloro-pyridin-4-yl)-benzoyl]-benzenesulfonamide]
6.21	6.25	N#Cc1ccc(C(=O)c2ccc(Cl)c(S(N)(=O)=O)c2)cc1 [Example 44, 2-Chloro-5-(4-cyano-benzoyl)-benzenesulfonamide]
7.28	7.10	Cc1ccc(C(=O)c2ccc(Cl)c(S(N)(=O)=O)c2)c(Br)c1 [Example 45, 5-(2-Bromo-4-methyl-benzoyl)-2-chloro-benzenesulfonamide]
6.82	6.68	Cc1cc(Br)ccc1C(=O)c1ccc(Cl)c(S(N)(=O)=O)c1 [Example 46, 5-(4-Bromo-2-methyl-benzoyl)-2-chloro-benzenesulfonamide]
< 4.52	4.60	COc1ccc(C(=O)c2ccc(Cl)c(S(N)(=O)=O)c2)c(OC)c1 [Example 48, 2-Chloro-5-(2,4-dimethoxy-benzoyl)-benzenesulfonamide]
< 4.52	4.61	NS(=O)(=O)c1cc(C(=O)c2ccccc2)ccc1Cl [Example 49, 5-Benzoyl-2-chloro-benzenesulfonamide]
4.84	4.73	NS(=O)(=O)c1cc(C(=O)c2ccc(F)cc2)ccc1Cl [Example 51, 2-Chloro-5-(4-fluoro-benzoyl)-benzenesulfonamide]
4.54	4.67	CC(C)(C)NC(=O)c1ccc(C(=O)c2ccc(Cl)c(S(N)(=O)=O)c2)cc1 [Example 52, N-tert-Butyl-4-(4-chloro-3-sulfamoyl-benzoyl)-benzamide]
4.63	4.57	NS(=O)(=O)c1cc(C(=O)c2ccc(C(=O)NCCc3ccccc3)cc2)ccc1Cl [Example 54, 4-(4-Chloro-3-sulfamoyl-benzoyl)-N-phenethyl-benzamide]
4.59	4.56	NS(=O)(=O)c1cc(C(=O)c2ccc(O)cc2)ccc1Cl [Example 55, 2-Chloro-5-(4-hydroxy-benzoyl)-benzenesulfonamide]
5.94	5.58	NS(=O)(=O)c1cc(C(=O)c2ccc(-c3ccccc3)cc2)ccc1Cl [Example 59, 5-(Biphenyl-4-carbonyl)-2-chloro-benzenesulfonamide]
5.96	5.99	Cc1ccc(-c2ccc(C(=O)c3ccc(Cl)c(S(N)(=O)=O)c3)cc2)cc1 [Example 61, 2-Chloro-5-(4′-methyl-biphenyl-4-carbonyl)-benzenesulfonamide]
5.66	6.08	NS(=O)(=O)c1cc(C(=O)c2ccc(-c3ccc(C(F)(F)F)cc3)cc2)ccc1Cl [Example 62, 2-Chloro-5-(4′-trifluoromethyl-biphenyl-4-carbonyl)-benzenesulfonamide]

Structure (SMILES)	pIC50 (Gelatinase (MMP-2))	pIC50 (Collagenase-3 (MMP-13))
CC(C)COc1ccc(C(=O)c2ccc(Cl)c(S(N)(=O)=O)c2)cc1 [Example 58, 2-Chloro-5-(4-isobutoxy-benzoyl)-benzenesulfonamide]	< 4.52	4.62
